Assay results from patent publication US20260344661A1, “USE OF AN ALKYLETHER SULFATE FOR IMPROVING THE EFFICACY OF HERBICIDES” (BASF SE, priority 2022, published 2026).

Tests used:
HORVW (winter barley) = experiment: Greenhouse post-emergence weed control, damage vs untreated (HORVW); format: in vivo, Hordeum vulgare; conditions: 20 DAT
AVEFA (wild oat) = experiment: Greenhouse post-emergence weed control, damage vs untreated (AVEFA); format: in vivo, Avena fatua
Experimental: (§1) A greenhouse study was conducted to evaluate the effect of the alkylether sulfates of formula (I) and other adjuvants on the weed control efficacy of glufosinate. Seedlings of grass plants (AVEFA, ECHCG, DIGSA and SETVI) and broadleaf weeds (KCHSC, CHEAL, AMAPA, AMATA and ABUTH) were grown to a height of 3 to 20 cm, depending on the plant habit in 10×10×10 cm pots filled with sandy planting soil (Limburgerhof soil). The weeds were treated with postemergence applications of glufosinate ammonium at the respective application rates given in the following tables, either alone or combined with various amounts of the respective adjuvants.
(§2) For this, the herbicide formulation and the respective adjuvant were introduced into tap water to obtain the spray liquor. […] The spray liquor was then applied to the plant a spray volume of 200 l/ha using a sprayer (XR Teejet 110015).
(§3) The test period extended over 21 days. During this time, the plants were tended, and their response to the treatments with active compound was evaluated.
(§4) The evaluation for the damage caused by the chemical compositions was carried out using a scale from 0 to 100%, compared to the untreated control plants. Here, 0 means no damage and 100 means complete destruction of the plants.
(§5) The plants used in the greenhouse experiments belonged to the following species:
(§6) The results are summarized in the following tables 1 to 15 that show the applied doses of the individual actives as gram of active ingredient per hectare (g ai/ha), the herbicidal activity of the individual […]

ECHCG (barnyardgrass) = experiment: Greenhouse post-emergence weed control, damage vs untreated (ECHCG); format: in vivo, Echinochloa crus-galli
Experimental: as §1, §2, §3, §4, §5, §6

[1] = system: Øgras (average value of AVEFA, ECHCG, DIGSA and SETVI); experiment: Greenhouse post-emergence weed control, average over grasses (Øgras); format: in vivo
Experimental: as §1, §2, §3, §4, §5, §6

KCHSC (kochia) = experiment: Greenhouse post-emergence weed control, damage vs untreated (KCHSC); format: in vivo, Kochia scoparia; conditions: 20 DAT
Experimental: as §1, §2, §3, §4
(§7) The plants used in the greenhouse experiments belonged to the following species: […]

CHEAL (lambsquarter) = experiment: Greenhouse post-emergence weed control, damage vs untreated (CHEAL); format: in vivo, Chenopodium album
Experimental: as §1, §2, §3, §4, §5, §6

AMAPA (palmer amaranth) = experiment: Greenhouse post-emergence weed control, damage vs untreated (AMAPA); format: in vivo, Amaranthus palmeri; conditions: 20 DAT
Experimental: as §1, §2, §3, §4, §5
(§8) The results are summarized in the following tables 1 to 15 that show the applied doses of the individual actives as gram of active ingredient per hectare (g ai/ha), the herbicidal activity of the individual actives and of their combinations in post-emergence application assessed 14 and 28 day after treatment (DAT), respectively.

[2] = system: AMATA (common water hemp); experiment: Greenhouse post-emergence weed control, damage vs untreated (AMATA); format: in vivo, Amaranthus tuberculatus; conditions: 20 DAT
Experimental: as §1, §2, §3, §4, §5, §8

ABUTH (velvetleaf) = experiment: Greenhouse post-emergence weed control, damage vs untreated (ABUTH); format: in vivo, Abutilon theophrasti; conditions: 20 DAT
Experimental: as §1, §2
[…] During this time, the plants were tended, and their response to the treatments with active compound was evaluated.
as §4, §7

[3] = system: ØBLV (average value of KCHSC, CHEAL, AMAPA, AMATA and ABUTH); experiment: Greenhouse post-emergence weed control, average over broadleaf weeds (ØBLV); format: in vivo; conditions: 20 DAT
Experimental: as §1, §2, §3, §4, §5, §8

HORVS (spring barley) = experiment: Greenhouse post-emergence weed control, damage vs untreated (HORVS); format: in vivo; conditions: 20 DAT
TRZAS (spring wheat) = experiment: Greenhouse post-emergence weed control, damage vs untreated (TRZAS); format: in vivo, Soft wheat (spring)
AMATU (tall waterhemp) = experiment: Greenhouse post-emergence weed control, damage vs untreated (AMATU); format: in vivo, Amaranthus tuberculatus; conditions: 20 DAT
Experimental: as §1, §2, §3, §4, §5, §8

[4] = system: ØBLV = Σ % activity (CHEAL + KCHSC + AMATU + ABUTH)/4; experiment: Greenhouse post-emergence weed control, average over broadleaf weeds (ØBLV, Tables 16-20); format: in vivo; conditions: average of CHEAL
[5] = 5 g ai/ha L-glufosinate (so in the source), no adjuvant
[6] = 37.5 g ai/ha L-glufosinate, adjuvant g ai/ha: none (CE1-B), 56 (IE2-A), 62.125 (IE2-B), 51.625 (CE2-F)
[7] = 150 g ai/ha L-glufosinate, adjuvant g ai/ha: none (CE1-B), 223 (IE2-A), 248.5 (IE2-B), 206.5 (CE2-F)
[8] = 300 g ai/ha L-glufosinate, adjuvant g ai/ha: none (CE1-B), 446 (IE2-A), 497 (IE2-B), 413 (CE2-F)
[9] = g ai/ha: 42.375 solo (CE1-C), 42.375 + 66.97 combined (IE3-A/B/C, CE2-J)
[10] = g ai/ha: 84.75 solo (CE1-C), 84.75 + 133.94 combined (IE3-A/B/C, CE2-J)
[11] = g ai/ha: 169.5 solo (CE1-C), 169.5 + 267.89 combined (IE3-A/B/C, CE2-J)
[12] = g ai/ha: 339 solo (CE1-C), 339 + 535.77 combined (IE3-A/B/C, CE2-J)

Question: Which “% activity” value (HORVW (winter barley); [5]) does the source give for `CP(=O)(O)CC[C@H](N)C(=O)O.N` [CE1-B, ammonium (2S)-2-amino-4-(methylphosphinato)butyric acid] here?
Answer: 0%

Question: What about the “% activity” value (HORVW (winter barley); [6]) of the same compound?
Answer: 5%

Question: And the “% activity” value (HORVW (winter barley); [7])?
Answer: 5%

Question: And the “% activity” value (HORVW (winter barley); [8])?
Answer: 15%

Question: What about the “% activity” value (AVEFA (wild oat); [5]) of the same compound?
Answer: 5%

Question: And the “% activity” value (AVEFA (wild oat); [6])?
Answer: 0%

Question: And the “% activity” value (AVEFA (wild oat); [7])?
Answer: 10%

Question: And the “% activity” value (AVEFA (wild oat); [8])?
Answer: 20%

Question: And the “% activity AVEFA” value (AVEFA (wild oat); [9])?
Answer: 3%

Question: What about the “% activity AVEFA” value (AVEFA (wild oat); [10]) of the same compound?
Answer: 3%

Question: What about the “% activity AVEFA” value (AVEFA (wild oat); [11]) of the same compound?
Answer: 5%

Question: And the “% activity AVEFA” value (AVEFA (wild oat); [12])?
Answer: 8%

Question: And the “% activity” value (ECHCG (barnyardgrass); [5])?
Answer: 0%

Question: And the “% activity” value (ECHCG (barnyardgrass); [6])?
Answer: 0%

Question: What about the “% activity” value (ECHCG (barnyardgrass); [7]) of the same compound?
Answer: 20%

Question: What about the “% activity” value (ECHCG (barnyardgrass); [8]) of the same compound?
Answer: 60%

Question: And the “% activity ECHCG” value (ECHCG (barnyardgrass); [9])?
Answer: 0%

Question: And the “% activity ECHCG” value (ECHCG (barnyardgrass); [10])?
Answer: 3%

Question: What about the “% activity ECHCG” value (ECHCG (barnyardgrass); [11]) of the same compound?
Answer: 3%

Question: What about the “% activity ECHCG” value (ECHCG (barnyardgrass); [12]) of the same compound?
Answer: 20%

Question: What about the “% activity (Øgras)” value [1, 5] of the same compound?
Answer: 26%

Question: And the “% activity (Øgras)” value [1, 6]?
Answer: 21%

Question: What about the “% activity (Øgras)” value [1, 7] of the same compound?
Answer: 40%

Question: And the “% activity (Øgras)” value [1, 8]?
Answer: 54%

Question: And the “% activity” value (KCHSC (kochia); [5])?
Answer: 5%

Question: What about the “% activity KCHSC” value (KCHSC (kochia); [9]) of the same compound?
Answer: 3%

Question: What about the “% activity KCHSC” value (KCHSC (kochia); [10]) of the same compound?
Answer: 3%

Question: What about the “% activity KCHSC” value (KCHSC (kochia); [11]) of the same compound?
Answer: 28%

Question: What about the “% activity KCHSC” value (KCHSC (kochia); [12]) of the same compound?
Answer: 35%

Question: And the “% activity” value (KCHSC (kochia); [6])?
Answer: 0%

Question: What about the “% activity” value (KCHSC (kochia); [7]) of the same compound?
Answer: 5%

Question: And the “% activity” value (KCHSC (kochia); [8])?
Answer: 10%

Question: And the “% activity” value (CHEAL (lambsquarter); [5])?
Answer: 0%

Question: And the “% activity” value (CHEAL (lambsquarter); [6])?
Answer: 0%

Question: And the “% activity” value (CHEAL (lambsquarter); [7])?
Answer: 0%

Question: What about the “% activity” value (CHEAL (lambsquarter); [8]) of the same compound?
Answer: 15%

Question: What about the “% activity CHEAL” value (CHEAL (lambsquarter); [9]) of the same compound?
Answer: 0%

Question: And the “% activity CHEAL” value (CHEAL (lambsquarter); [10])?
Answer: 0%

Question: What about the “% activity CHEAL” value (CHEAL (lambsquarter); [11]) of the same compound?
Answer: 5%

Question: What about the “% activity CHEAL” value (CHEAL (lambsquarter); [12]) of the same compound?
Answer: 10%

Question: What about the “% activity” value (AMAPA (palmer amaranth); [5]) of the same compound?
Answer: 60%

Question: What about the “% activity” value (AMAPA (palmer amaranth); [6]) of the same compound?
Answer: 98%

Question: What about the “% activity” value (AMAPA (palmer amaranth); [7]) of the same compound?
Answer: 98%

Question: And the “% activity” value (AMAPA (palmer amaranth); [8])?
Answer: 98%

Question: What about the “% activity” value [2, 5] of the same compound?
Answer: 95%

Question: And the “% activity” value [2, 6]?
Answer: 20%

Question: And the “% activity” value [2, 7]?
Answer: 98%

Question: What about the “% activity” value [2, 8] of the same compound?
Answer: 98%

Question: What about the “% activity” value (ABUTH (velvetleaf); [5]) of the same compound?
Answer: 10%

Question: What about the “% activity ABUTH” value (ABUTH (velvetleaf); [9]) of the same compound?
Answer: 5%

Question: And the “% activity ABUTH” value (ABUTH (velvetleaf); [11])?
Answer: 30%

Question: What about the “% activity ABUTH” value (ABUTH (velvetleaf); [12]) of the same compound?
Answer: 68%

Question: What about the “% activity” value (ABUTH (velvetleaf); [6]) of the same compound?
Answer: 10%

Question: What about the “% activity” value (ABUTH (velvetleaf); [7]) of the same compound?
Answer: 30%

Question: And the “% activity” value (ABUTH (velvetleaf); [8])?
Answer: 60%

Question: And the “% activity (ØBLV)” value [3, 5]?
Answer: 34%

Question: What about the “% activity (ØBLV)” value [3, 6] of the same compound?
Answer: 26%

Question: What about the “% activity (ØBLV)” value [3, 7] of the same compound?
Answer: 46%

Question: And the “% activity (ØBLV)” value [3, 8]?
Answer: 56%

Question: What about the “% activity HORVS” value (HORVS (spring barley); [9]) of the same compound?
Answer: 0%

Question: What about the “% activity HORVS” value (HORVS (spring barley); [10]) of the same compound?
Answer: 0%

Question: What about the “% activity HORVS” value (HORVS (spring barley); [11]) of the same compound?
Answer: 0%

Question: What about the “% activity HORVS” value (HORVS (spring barley); [12]) of the same compound?
Answer: 10%

Question: And the “% activity TRZAS” value (TRZAS (spring wheat); [9])?
Answer: 0%

Question: And the “% activity TRZAS” value (TRZAS (spring wheat); [10])?
Answer: 0%

Question: And the “% activity TRZAS” value (TRZAS (spring wheat); [11])?
Answer: 5%

Question: What about the “% activity TRZAS” value (TRZAS (spring wheat); [12]) of the same compound?
Answer: 5%

Question: What about the “% activity AMATU” value (AMATU (tall waterhemp); [9]) of the same compound?
Answer: 23%

Question: And the “% activity AMATU” value (AMATU (tall waterhemp); [10])?
Answer: 75%

Question: And the “% activity AMATU” value (AMATU (tall waterhemp); [11])?
Answer: 45%

Question: What about the “% activity AMATU” value (AMATU (tall waterhemp); [12]) of the same compound?
Answer: 97%

Question: And the “% activity (ØBLV)” value [4, 9]?
Answer: 8%

Question: What about the “% activity (ØBLV)” value [4, 10] of the same compound?
Answer: 26%

Question: What about the “% activity (ØBLV)” value [4, 11] of the same compound?
Answer: 27%

Question: And the “% activity (ØBLV)” value [4, 12]?
Answer: 53%
